This note sets out measurements from US9795140B2, “Molecules having pesticidal utility, and intermediates, compositions, and processes, related thereto” (priority 2015, dated 2017).

Each structure is given as a SMILES string.

Format in all cases: in vivo
The subject of data set [1] is Beet Armyworm (Spodoptera exigua, LAPHEG). The experiment in a line: Bioassay on Beet Armyworm (BAW), 128-well diet tray assay. The note with it: 168 h, 50 μg/cm^2 on artificial diet, second instar larvae, 25° C., five to seven days, average of eight wells, read-out: BAW % Control (or Mortality) rating. The essentials: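 Test molecule dissolved in acetone-water 90:10 is applied at 50 μg/cm^2 onto artificial diet and allowed to dry. Second instar larvae, one to five per well, are then added, and trays are vented and kept at 25° C. for five to seven days before mortality is scored.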

Data set [2] relates to Cabbage Looper (Trichoplusia ni, TRIPNI). The experiment in a line: Bioassay on Cabbage Looper (CL), 128-well diet tray assay. The following applies: 168 h, 50 μg/cm^2 on artificial diet, second instar larvae, 25° C., five to seven days, average of eight wells, read-out: CL % Control (or Mortality) rating. The method in brief:
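Percent larval mortality, averaged across eight replicate wells, was scored after 5–7 days at 25 °C with a 14:10 photoperiod. Each well held 1 mL diet surface-treated at 50 μg/cm^2 with test molecule from a 90:10 acetone-water solution, then dried. Wells were infested with one to five second-instar cabbage loopers.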

Data set [3] concerns Green Peach Aphid (Myzus persicae, MYZUPE). Put plainly: Bioassay on Green Peach Aphid (GPA), foliar spray on cabbage seedlings. The note with it: 72 h, 200 ppm spray on infested cabbage seedlings, three days, Abbott corrected % control, read-out: GPA % Control (or Mortality) rating. The method, then: Certain molecules disclosed in this document were tested against GPA using procedures described in the following example. In the reporting of the results, the “GPA & YFM Rating Table” was used (See Table Section).
Cabbage seedlings grown in 3-inch pots, with 2-3 small (3-5 cm) true leaves, were used as test substrate. The seedlings were infested with 20-50 GPA (wingless adult and nymph stages) one day prior to chemical application. Four pots with individual seedlings were used for each treatment. Test molecules (2 mg) were dissolved in 2 mL of acetone/methanol (1:1) solvent, forming stock solutions of 1000 ppm test molecule. The stock solutions were diluted 5× with 0.025% Tween 20 in water to obtain the solution at 200 ppm test molecule. A hand-held aspirator-type sprayer was used for spraying a solution to both sides of […] leaves until runoff. Reference plants (solvent check) were sprayed with the diluent only containing 20% by volume of acetone/methanol (1:1) solvent. Treated plants were held in a holding room for three days at approximately 25° C. and ambient relative humidity (RH) prior to grading. Evaluation was conducted by counting the number of live aphids per plant under a microscope. Percent control was measured using Abbott's correction formula (W. S. Abbott, “A Method of Computing the Effectiveness of an Insecticide” J. Econ. Entomol. 18 (1925), pp. 265-267) as follows. Corrected % Control=100*(X−Y)/X where X=No. of live aphids on solvent check plants and Y=No. of live aphids on treated plants. The results are indicated in the table entitled “Table ABC: Biological Results” (See Table Section).

In data set [4] the test system is Yellow Fever Mosquito (Aedes aegypti, AEDSAE). The experiment in a line: Bioassay on Yellow Fever Mosquito (YFM) larvae, 96-well plate. The following applies: about 1 day-old larvae, room temperature, 3 days, scored on mortality. The method in brief: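 Each well was scored for mortality after 3 days at room temperature under a non-evaporative lid. Test molecules came from DMSO masters (4000 ppm stock) diluted with water/acetone 90:10 and dispensed into six replicate plates, which were then infested with roughly 1-day-old larvae in liver-powder water.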

A word on the mortality: it is the share of the test organisms that died. Regarding `CNC(=O)c1cc(NC(=O)[C@H]2[C@H](c3cc(Cl)cc(Cl)c3)C2(Cl)Cl)ccc1C(F)(F)F` (relative stereo) [F2, trans-5-(2,2-Dichloro-3-(3,5-dichlorophenyl)cyclopropane-1-carboxamido)-N-methyl-2-(trifluoromethyl)benzamide], the mortality at 50 µg/cm2 in data set [1] and in data set [2] was 50 to 100% each time. In addition, the mortality at 200 ppm in data set [3] lay within 0 to 80%. The “YFM % Control (or Mortality) rating” value in data set [4] is on record as “A (80-100)”.

For the compound `CCNC(=O)c1cc(NC(=O)[C@H]2[C@H](c3cc(Cl)cc(Cl)c3)C2(Cl)Cl)ccc1Cl` (relative stereo) [F46, trans-2-Chloro-5-(2,2-dichloro-3-(3,5-dichlorophenyl)cyclopropane-1-carboxamido)-N-ethylbenzamide], the mortality at 50 µg/cm2 in data set [1] and in data set [2] was 50 to 100% throughout. Besides, the mortality at 200 ppm in data set [3] lay in the range of 80 to 100%. In data set [4], the “YFM % Control (or Mortality) rating” value was “A (80-100)”.

With `O=C(NOCC1CC1)c1cc(NC(=O)C2C(c3cc(Cl)c(Cl)c(Cl)c3)C2(Cl)Cl)ccc1Cl` (stereo not drawn) [F15, trans-N-2-Chloro-N-(cyclopropylmethoxy)-5-(2,2-dichloro-3-(3,4,5-trichlorophenyl)cyclopropane-1-carboxamido)benzamide], the mortality at 50 µg/cm2 in data set [1] and in data set [2] was 50 to 100% in each case. The mortality at 200 ppm in data set [3] lay within 80 to 100%. In addition, the “YFM % Control (or Mortality) rating” value in data set [4] is given as “A (80-100)”.

In the case of `C#CCNC(=O)c1cc(NC(=O)[C@H]2[C@H](c3cc(Cl)cc(Cl)c3)C2(Cl)Cl)ccc1Cl` (relative stereo) [F47, trans-2-Chloro-5-(2,2-dichloro-3-(3,5-dichlorophenyl)cyclopropane-1-carboxamido)-N-(prop-2-yn-1-yl)benzamide], the mortality at 50 µg/cm2 in data set [1] and in data set [2] was 50 to 100% each time. Also, the mortality at 200 ppm in data set [3] lay in the range of 80 to 100%. In data set [4], the “YFM % Control (or Mortality) rating” value is “A (80-100)”.

As for `N#CCCCNC(=O)c1cc(NC(=O)[C@H]2[C@H](c3cc(Cl)cc(Cl)c3)C2(Cl)Cl)ccc1Cl` (relative stereo) [F38, trans-2-Chloro-N-(3-cyanopropyl)-5-(2,2-dichloro-3-(3,5-dichlorophenyl)cyclopropane-1-carboxamido)benzamide], the mortality at 50 µg/cm2 in data set [1] and in data set [2] was 50 to 100% in each case. The mortality at 200 ppm in data set [3] is 80 to 100%. The “YFM % Control (or Mortality) rating” value in data set [4] was “A (80-100)”.

As for `CCCCCCNC(=O)c1cc(NC(=O)[C@H]2[C@H](c3cc(Cl)cc(Cl)c3)C2(Cl)Cl)ccc1Cl` (relative stereo) [F31, trans-2-Chloro-5-(2,2-dichloro-3-(3,5-dichlorophenyl)cyclopropane-1-carboxamido)-N-hexylbenzamide], the mortality at 50 µg/cm2 in data set [1] and in data set [2] was 50 to 100% in each case. The mortality at 200 ppm in data set [3] fell in the range of 0 to 80%. The “YFM % Control (or Mortality) rating” value in data set [4] is given as “B (More than 0-Less than 80)”.

As to `CCCCCNC(=O)c1cc(NC(=O)[C@H]2[C@H](c3cc(Cl)cc(Cl)c3)C2(Cl)Cl)ccc1Cl` (relative stereo) [F33, trans-2-Chloro-5-(2,2-dichloro-3-(3,5-dichlorophenyl)cyclopropane-1-carboxamido)-N-pentylbenzamide], the mortality at 50 µg/cm2 in data set [1] and in data set [2] was 50 to 100% throughout. The mortality at 200 ppm in data set [3] fell in the range of 0 to 80%. In addition, the “YFM % Control (or Mortality) rating” value in data set [4] is given as “A (80-100)”.

Take `O=C(NCc1ccc(F)c(F)c1)c1cc(NC(=O)[C@H]2[C@H](c3cc(Cl)cc(Cl)c3)C2(Cl)Cl)ccc1Cl` (relative stereo) [F32, trans-2-Chloro-5-(2,2-dichloro-3-(3,5-dichlorophenyl)cyclopropane-1-carboxamido)-N-(3,4-difluorobenzyl)benzamide]: the mortality at 50 µg/cm2 in data set [1] and in data set [2] was 50 to 100% in each case. Moreover, the mortality at 200 ppm in data set [3] is 0 to 80%. In addition, the “YFM % Control (or Mortality) rating” value in data set [4] is given as “A (80-100)”.

On to `C[C@H](CS(=O)(=O)CC(F)(F)F)NC(=O)c1cc(NC(=O)C2C(c3cc(Cl)cc(Cl)c3)C2(Cl)Cl)ccc1Cl` (stereo in doubt) [PF6, trans-2-Chloro-5-(2,2-dichloro-3-(3,5-dichlorophenyl)cyclopropane-1-carboxamido)-N—((R)-1-((2,2,2-trifluoroethyl)sulfonyl)propan-2-yl)benzamide], for which the mortality at 50 µg/cm2 in data set [1] and in data set [2] was 50 to 100% each time. Also, the mortality at 200 ppm in data set [3] fell in the range of 0 to 80%. Besides, the “YFM % Control (or Mortality) rating” value in data set [4] is reported as “A (80-100)”.

In the case of `O=C(NCc1ccccc1)c1cc(NC(=O)[C@H]2[C@H](c3cc(Cl)cc(Cl)c3)C2(Cl)Cl)ccc1Cl` (relative stereo) [F27, trans-N-benzyl-2-chloro-5-(2,2-dichloro-3-(3,5-dichlorophenyl)cyclopropane-1-carboxamido)benzamide], the mortality at 50 µg/cm2 in data set [1] and in data set [2] was 50 to 100% each time. Also, the mortality at 200 ppm in data set [3] was in the range of 0 to 80%. In data set [4], the “YFM % Control (or Mortality) rating” value is “A (80-100)”.

Turning to `O=C(NCCCOCC(F)(F)F)c1cc(NC(=O)[C@H]2[C@H](c3cc(Cl)cc(Cl)c3)C2(Cl)Cl)ccc1Cl` (relative stereo) [F39, trans-2-Chloro-5-(2,2-dichloro-3-(3,5-dichlorophenyl)cyclopropane-1-carboxamido)-N-(3-(2,2,2-trifluoroethoxy)propyl)benzamide], the mortality at 50 µg/cm2 in data set [1] and in data set [2] was 50 to 100% throughout. Also, in data set [3], the mortality at 200 ppm lay within 80 to 100%. Also, in data set [4], the “YFM % Control (or Mortality) rating” value was “A (80-100)”.

For `C=CCONC(=O)c1cc(NC(=O)[C@H]2[C@H](c3ccc(Cl)c(Cl)c3)C2(Cl)Cl)ccc1Cl` (relative stereo) [F14, trans-N-(Allyloxy)-2-chloro-5-(2,2-dichloro-3-(3,4-dichlorophenyl)cyclopropane-1-carboxamido)benzamide], the mortality at 50 µg/cm2 in data set [1] and in data set [2] was 50 to 100% in each case. Further, in data set [3], the mortality at 200 ppm lay in the range of 0 to 80%. The “YFM % Control (or Mortality) rating” value in data set [4] was “A (80-100)”.

On to `O=C(NCc1ccncc1)c1cc(NC(=O)[C@H]2[C@H](c3cc(Cl)cc(Cl)c3)C2(Cl)Cl)ccc1Cl` (relative stereo) [F12, trans-2-Chloro-5-(2,2-dichloro-3-(3,5-dichlorophenyl)cyclopropane-1-carboxamido)-N-(pyridin-4-ylmethyl)benzamide], for which the mortality at 50 µg/cm2 in data set [1] and in data set [2] was 50 to 100% each time. Moreover, the mortality at 200 ppm in data set [3] was 0 to 80%. Further, the “YFM % Control (or Mortality) rating” value in data set [4] is recorded as “A (80-100)”.

On to `CS(=O)(=O)CCNC(=O)c1cc(NC(=O)[C@H]2[C@H](c3cc(Cl)cc(Cl)c3)C2(Cl)Cl)ccc1Cl` (relative stereo) [F75, trans-2-chloro-5-(2,2-dichloro-3-(3,5-dichlorophenyl)cyclopropane-1-carboxamido)-N-(2-(methylsulfonyl)ethyl)benzamide], for which the mortality at 50 µg/cm2 in data set [1] and in data set [2] was 50 to 100% throughout. Moreover, the mortality at 200 ppm in data set [3] lay within 80 to 100%. Besides, in data set [4], the “YFM % Control (or Mortality) rating” value is reported as “A (80-100)”.

In the case of `O=C(NCCCF)c1cc(NC(=O)[C@H]2[C@H](c3cc(Cl)cc(Cl)c3)C2(Cl)Cl)ccc1Cl` (relative stereo) [F44, trans-2-Chloro-5-(2,2-dichloro-3-(3,5-dichlorophenyl)cyclopropane-1-carboxamido)-N-(3-fluoropropyl)benzamide], the mortality at 50 µg/cm2 in data set [1] and in data set [2] was 50 to 100% throughout. Moreover, the mortality at 200 ppm in data set [3] was in the range of 80 to 100%. Also, the “YFM % Control (or Mortality) rating” value in data set [4] was “A (80-100)”.

For the compound `O=C(NCCC(F)(F)F)c1cc(NC(=O)[C@H]2[C@H](c3cc(Cl)cc(Cl)c3)C2(Cl)Cl)ccc1Cl` (relative stereo) [F40, trans-2-Chloro-5-(2,2-dichloro-3-(3,5-dichlorophenyl)cyclopropane-1-carboxamido)-N-(3,3,3-trifluoropropyl)benzamide], the mortality at 50 µg/cm2 in data set [1] and in data set [2] was 50 to 100% throughout. Also, the mortality at 200 ppm in data set [3] lay in the range of 80 to 100%. In addition, the “YFM % Control (or Mortality) rating” value in data set [4] is given as “A (80-100)”.
